Laboratory results taken from patent publication US20160158200A1, “Combinations of Hepatitis C Virus Inhibitors” (priority 2013, published 2016).

System: HCV genotype-1a variant with glutamine 30 changed to glutamate in the NS5A protein
Format: cell-based
Conditions: test compound titrated with BMS-790052 fixed at 200 nM; genotype 1a Q30E replicon
Outline: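 Synergy was assessed by combining several fixed amounts of an NS5A-targeting compound with a titration of the second compound of interest.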

Compound	Fold-Synergistic 1a (Q30E) [fold]
CC(C)[C@H](NC(=O)c1cccc(F)c1)c1ncc(-c2ccc(-c3ccc(-c4cnc([C@@H](NC(=O)c5cccc(F)c5)C(C)C)[nH]4)cc3)cc2)[nH]1 [Compound S-73]	>100
CC(C)[C@H](NC(=O)c1ccc(C(F)(F)F)nc1)c1ncc(-c2ccc(-c3ccc(-c4cnc([C@@H](NC(=O)c5ccc(C(F)(F)F)nc5)C(C)(C)C)[nH]4)cc3)cc2)[nH]1 [Compound Y-47]	>100
CC1([C@H](NC(=O)C2(N3CCC(F)(F)CC3)COC2)c2nc(-c3ccc(-c4ccc(-c5c[nH]c([C@@H](NC(=O)C6(N7CCC(F)(F)CC7)COC6)C6(C)CC6)n5)cc4)cc3)c[nH]2)CC1 [Compound W-62]	>100
CC(C)[C@H](NC(=O)c1c(F)cccc1Cl)c1ncc(-c2ccc(-c3ccc(-c4cnc([C@@H](NC(=O)c5c(F)cccc5Cl)C(C)(C)C)[nH]4)cc3)cc2)[nH]1 [Compound Y-43]	>100
CC(C)(C)OC(=O)N1CC2CC2C1C(=O)NC(c1nc(-c2ccc(-c3ccc(-c4c[nH]c(C(NC(=O)C5C6CC6CN5C(=O)OC(C)(C)C)C(C)(C)C)n4)cc3)cc2)c[nH]1)C(C)(C)C (stereo not shown) [Compound W-79]	>100
COC(=O)NC(C(=O)N1CCCC1c1ncc(-c2ccc(-c3ccc(-c4cnc(C(NC(=O)C5(C)CCC(F)(F)CO5)C(C)(C)C)[nH]4)cc3)cc2)[nH]1)C(C)C (stereo not shown) [Compound B-193]	>10
CN(C)C(=N[C@H](c1ncc(-c2ccc(-c3ccc(-c4cnc([C@@H](NC(=O)C(C)(C)C5CCCC5)C(C)(C)C)[nH]4)cc3)cc2)[nH]1)C(C)(C)C)N(C)C [Compound B83]	>100
CCN(CC(F)(F)F)C(=O)C(=O)N[C@H](c1nc(-c2ccc(-c3ccc(-c4c[nH]c([C@@H](NC(=O)C(=O)N(CC)CC(F)(F)F)C(C)(C)C)n4)cc3)cc2)c[nH]1)C(C)(C)C [Compound W-37]	>100
CC1(C(NC(=O)C(C)(C)C(O)C2(C)CC2)c2nc(-c3ccc(-c4ccc(-c5c[nH]c(C(NC(=O)C(C)(C)C(O)C6(C)CC6)C6(C)CC6)n5)cc4)cc3)c[nH]2)CC1 (mixture of isomers) [Compound N-156]	>100
CC(C)[C@H](NC(=O)c1cc(Cl)ccc1F)c1ncc(-c2ccc3c(c2)Cc2cc(-c4cnc([C@@H](NC(=O)c5cc(Cl)ccc5F)C(C)C)[nH]4)ccc2-3)[nH]1.O=C(O)C(F)(F)F [Compound N-73]	>100
CC(C)[C@H](NC(=O)c1cc(Cl)ccc1Cl)c1ncc(-c2ccc(-c3ccc(-c4cnc([C@@H](NC(=O)c5cc(Cl)ccc5Cl)C(C)C)[nH]4)cc3)cc2)[nH]1 [Compound S-67]	>100
CC(O)C(C)(C)C(=O)N[C@H](c1ncc(-c2ccc(-c3ccc(-c4cnc([C@@H](NC(=O)C(C)(C)C(C)O)C(C)(C)C)[nH]4)cc3)cc2)[nH]1)C(C)(C)C (single isomer, unassigned) [Compound B78]	>100
CC(C)(C)[C@H](NC(=O)[C@@H]1C[C@@H]2[C@H](C1)C2(F)F)c1nc(-c2ccc(-c3ccc(-c4c[nH]c([C@@H](NC(=O)[C@@H]5C[C@@H]6[C@H](C5)C6(F)F)C(C)(C)C)n4)cc3)cc2)c[nH]1 [Compound Y-9]	>100
CC(C)[C@H](NC(=O)/C=C/c1ccccc1)c1ncc(-c2ccc(-c3ccc(-c4cnc([C@@H](NC(=O)/C=C/c5ccccc5)C(C)C)[nH]4)cc3)cc2)[nH]1 [Compound S-43]	>100
C[C@H]1CCN(C(=O)C(=O)N2CCC(F)(F)CC2)C1c1nc(-c2ccc(-c3ccc(-c4c[nH]c(C5[C@@H](C)CCN5C(=O)C(=O)N5CCC(F)(F)CC5)n4)cc3)cc2)c[nH]1 (stereo partly shown) [Compound W-187]	>100
CC(C)(C)[C@H](NC(=O)C1CC(=O)C1)c1nc(-c2ccc(-c3ccc(-c4c[nH]c([C@@H](NC(=O)C5CC(=O)C5)C(C)(C)C)n4)cc3)cc2)c[nH]1 [Compound W-171]	>100
CC(C)[C@H](NC(=O)C(F)(F)c1ccccc1)c1ncc(-c2ccc(-c3ccc(-c4cnc([C@@H](NC(=O)C(F)(F)c5ccccc5)C(C)C)[nH]4)cc3)cc2)[nH]1 [Compound P-97]	>100
CC(C)(C)[C@H](NC(=O)c1ccc(F)c(F)c1)c1nc(-c2ccc(-c3ccc(-c4c[nH]c([C@@H](NC(=O)c5ccc(F)c(F)c5)C(C)(C)C)n4)cc3)cc2)c[nH]1 [Compound N-51]	>100
CCC(=O)N[C@H](c1ncc(-c2ccc(-c3ccc(-c4cnc([C@@H](NC(=O)CC)C(C)C)[nH]4)cc3)cc2)[nH]1)C(C)C [Compound S-31]	>100

Compound	Fold-Synergistic 1a (Q30E) [fold]
O=C(c1cc2ccccc2[nH]1)N1CCC[C@H]1c1ncc(-c2ccc(-c3ccc(-c4cnc([C@@H]5CCCN5C(=O)c5cc6ccccc6[nH]5)[nH]4)cc3)cc2)[nH]1 [Compound S-120]	<10
C[C@H](C(=O)N[C@H](c1nc(-c2ccc(-c3ccc(-c4c[nH]c([C@@H](NC(=O)[C@@H](C)c5ccccc5)C(C)(C)C)n4)cc3)cc2)c[nH]1)C(C)(C)C)c1ccccc1 [Compound N-60]	>100
CC(C)(C)[C@H](NC(=O)C1CCC(F)(F)CC1)c1nc(-c2ccc(-c3ncc(-c4c[nH]c([C@@H](NC(=O)C5CCC(F)(F)CC5)C(C)(C)C)n4)cn3)cc2)c[nH]1 [Compound N-104]	>100
CC(C)C(=O)NC1(C(=O)N[C@H](c2nc(-c3ccc(-c4ccc(-c5c[nH]c([C@@H](NC(=O)C6(NC(=O)C(C)C)CCCCC6)C(C)(C)C)n5)cc4)cc3)c[nH]2)C(C)(C)C)CCCCC1 [Compound W-266]	>100
CC(C)[C@H](NC(=O)C1(c2ccc(Cl)cc2)CCCC1)c1ncc(-c2ccc(-c3ccc(-c4cnc([C@@H](NC(=O)C5(c6ccc(Cl)cc6)CCCC5)C(C)C)[nH]4)cc3)cc2)[nH]1 [Compound S-2]	>100
CC(C)(C)C(=O)N[C@H](c1ncc(-c2ccc(-c3cc4ccc(-c5cnc([C@@H](NC(=O)C(C)(C)C)C(C)(C)C)[nH]5)cc4o3)cc2)[nH]1)C(C)(C)C.O=C(O)C(F)(F)F [Compound B62]	>10
CC(C)(C)[C@H](NC(=O)Cc1ccccc1F)c1nc(-c2ccc(-c3ccc(-c4c[nH]c([C@@H](NC(=O)Cc5ccccc5F)C(C)(C)C)n4)cc3)cc2)c[nH]1 [Compound N-48]	>100
CC(C)(C)[C@H](NC(=O)C(=O)N1CCC(C(F)(F)F)CC1)c1nc(-c2ccc(-c3ccc(-c4c[nH]c([C@@H](NC(=O)C(=O)N5CCC(C(F)(F)F)CC5)C(C)(C)C)n4)cc3)cc2)c[nH]1 [Compound W-60]	>100
CCOC(=O)NC(C)(C)C(=O)N[C@H](c1nc(-c2ccc(-c3ccc(-c4c[nH]c([C@@H](NC(=O)C(C)(C)NC(=O)OCC)C(C)(C)C)n4)cc3)cc2)c[nH]1)C(C)(C)C [Compound Q-2]	>100
CC(C)[C@H](NC(=O)[C@@H]1Cc2ccccc21)c1ncc(-c2ccc(-c3ccc(-c4cnc([C@@H](NC(=O)[C@@H]5Cc6ccccc65)C(C)C)[nH]4)cc3)cc2)[nH]1 [Compound P-110]	>100
COC(=O)N[C@H]1CCN([C@H](c2ncc(-c3ccc(-c4ccc(-c5cnc([C@H](C(C)C)N6CC[C@H](NC(=O)OC)C6=O)[nH]5)cc4)cc3)[nH]2)C(C)C)C1=O.O=C(O)C(F)(F)F.O=C(O)C(F)(F)F [Compound P-53]	<10
CC(C)(C)C(=O)NC(c1nc(-c2ccc(-c3ccc(-c4c[nH]c(C(NC(=O)C(C)(C)C)C5(C(F)(F)F)CC5)n4)cc3)cc2)c[nH]1)C1(C(F)(F)F)CC1 (single isomer, unassigned) [Compound N-107A]	>100
CC(C)(C)[C@H](NC(=O)C1CC1(F)F)c1nc(-c2ccc(-c3ccc(-c4c[nH]c([C@@H](NC(=O)C5CC5(F)F)C(C)(C)C)n4)cc3)cc2)c[nH]1 (stereo partly shown) [Compound N-45a]	>100
CN1CC(F)(F)C[C@H]1C(=O)N[C@H](c1nc(-c2ccc(-c3ccc(-c4c[nH]c([C@@H](NC(=O)[C@@H]5CC(F)(F)CN5C)C(C)(C)C)n4)cc3)cc2)c[nH]1)C(C)(C)C [Compound P-35]	>100
COC(=O)N(C)C1(C(=O)N[C@H](c2nc(-c3ccc(-c4ccc(-c5c[nH]c([C@@H](NC(=O)C6(N(C)C(=O)OC)CC6)C(C)(C)C)n5)cc4)cc3)c[nH]2)C(C)(C)C)CC1.O=C(O)C(F)(F)F.O=C(O)C(F)(F)F [Compound L-19]	>100
COC(C)(COCc1ccccc1)C(=O)N[C@H](c1nc(-c2ccc(-c3ccc(-c4c[nH]c([C@@H](NC(=O)C(C)(COCc5ccccc5)OC)C(C)(C)C)n4)cc3)cc2)c[nH]1)C(C)(C)C.O=C(O)C(F)(F)F.O=C(O)C(F)(F)F (single isomer, unassigned) [Compound W-231]	>100
CC(=O)N(C)C1(C(=O)N[C@H](c2nc(-c3ccc(-c4ccc(-c5c[nH]c([C@@H](NC(=O)C6(N(C)C(C)=O)CC6)C(C)(C)C)n5)cc4)cc3)c[nH]2)C(C)(C)C)CC1.O=C(O)C(F)(F)F.O=C(O)C(F)(F)F [Compound L-11]	>100
CC(C)(C)[C@H](NC(=O)C(C)(O)C1(C)CC1)c1nc(-c2ccc(-c3ccc(-c4c[nH]c([C@@H](NC(=O)C(C)(O)C5(C)CC5)C(C)(C)C)n4)cc3)cc2)c[nH]1 (single isomer, unassigned) [Compound L-93c]	>100
